According to US20130129675A1, “INTERFERON THERAPIES IN COMBINATION WITH BLOCKADE OF STAT3 ACTIVATION” (BOARD OF REGENTS, THE UNIVERSITY OF TEXAS SYSTEM, priority 2009, published 2013):

Key:
[1] = cited from earlier work
[2] = system: STAT3 in HaCaT keratinocytes; experiment: pSTAT3 level in HaCaT keratinocytes (MSD chemiluminescent detection); type: cell-based, human
Method: Prior to experiments, the DMEM medium was changed to KGM-SFM containing rEGF and bovine pituitary extract for 12 hours, and the cells then exposed to various stimuli for 30 minutes. Cell lysates were extracted in IP lysis buffer were diluted in MSD extraction buffer and 25 uL of the cell lysate containing 10 ug protein was used in the analysis via chemiluminescent detection (MSD Technology). To test for inhibition by WP1220 (WP), cells were pre-incubated with WP1220 prior to the addition of IFN α.

[3] = system: melanoma; settings: cited from earlier work
[4] = system: STAT3 and Jak2 phosphorylation in SUP-T1 lymphoma cell line; experiment: Cytokine signalling in SUP-T1 lymphoma cell line; type: cell-based; settings: SUP-T1 lymphoma cell line (data not shown)
[5] = system: p-STAT3 (Tyr705) in B16 cells; experiment: p-STAT3 immunoblotting in B16 cells; type: cell-based, murine; settings: 4 hours, 5 and 10 μM (FIG. 3A)
Method: (§1) Immunoblotting analysis. Murine melanoma B16 cells and splenocytes were used for protein isolation and immunoblotting analysis as described below. B16 cells were seeded at a density of 2×10^6 cells/well in 6-well culture plates and incubated at 37° C., in an atmosphere containing 5% CO2, with the RPMI 1640 medium overnight. Afterward, B16 cells were cultured in the absence or presence of WP1193 (5 μM, 10 μM). After 3.5 hours, the B16 cells were further cultured in the absence or presence of 20 ng/ml of IFN-α for 30 minutes. For the splenocyte preparation, spleens from two 4- to 6-week-old female mice were harvested and disassociated into a single cell suspension. […] The supernatants were collected and quantified for protein content. […]
(§2) Autoradiography of the membranes was performed using Amersham ECL Western blotting detection reagents (Amersham Biosciences). The densities of the protein bands compared with the β-actin protein control were measured with the Image J program provided by the NIH.
(§3) In this experiment, B16 cells and splenocytes isolated from C57BL/6J mice and were incubated with either the medium, medium supplemented with titrated WP1193, medium supplemented with IFN-α, or medium supplemented with both IFN-α and WP1193. […] Semi-quantitative densitometry was used to determine the relative levels of p-STAT3 to STAT3 and β-actin.

[6] = system: p-STAT3 (Tyr705) in splenocytes; experiment: p-STAT3 immunoblotting in splenocytes; type: cell-based, C57BL/6J mice; settings: 2 hours, 5 and 10 μM (FIG. 3B)
Method: as §1, §2, §3

Compound	duration of sustained in vivo expression ([1]; after administration of plasmid)	serum level of IFN-α ([1]; single i.v. hydrodynamic injection of 3 μg pORF plasmid encoding murine IFN-α)	STAT3 activation in keratinocytes [2]	Relative level of pSAT3 ([2]; HaCaT cells, stimuli for 30 minutes)	pSTAT3 stimulation (Table E8) ([2]; SFM + IFN α, no inhibitor)	reduction in the relative relapse risk ([3]; high-dose type I IFN-α, stage II and III melanoma, adjuvant trials)	melanoma patients with an objective response ([3]; human, in vivo)	STAT3 and Jak2 phosphorylation [4]	phosphorylation of p-STAT3 [5]	phosphorylation of p-STAT3 [6]
IFN-α	more than 30 days	0.9 ng/mL	potently induce STAT3 activation	+++++ (+++++=400-500 fold)	+++++ (+++++=10,000-6,000)	25-33%	15%	potently induce STAT3 but not Jak2 phosphorylation		
N#C/C(=C\c1cccc(Br)n1)C(=O)N[C@H](c1ccccc1)C1CC1 [WP1193, (S,E)-3-(6-bromopyridin-2-yl)-2-cyano-N-(cyclopropyl(phenyl)methyl)acrylamide]									inhibits the phosphorylation of p-STAT3	inhibits the phosphorylation of p-STAT3
